PubChem BioAssay (NCI)
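All cell lines were grown in 96-well plates and treated with compound for 48 hours. TGI marks complete inhibition of growth.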

Legend:
Experiment in all cases: DTP human tumour cell line panel, 48 h
[1] = tested on: SNB-75 CNS
[2] = tested on: U251 CNS
[3] = tested on: CAKI-1 renal
[4] = tested on: SF-268 CNS
[5] = tested on: BT-549 breast
[6] = tested on: NCI-H522 lung
[7] = tested on: SNB-19 CNS
[8] = tested on: SR leukemia
[9] = tested on: EKVX NSCLC
[10] = tested on: MDA-MB-435
[11] = tested on: SN12C renal
[12] = tested on: SK-MEL-28 melanoma
[13] = tested on: HCC-2998 colon
[14] = tested on: SW-620 colon
[15] = tested on: CCRF-CEM leukemia
[16] = tested on: NCI-H226 lung
[17] = tested on: SF-539 CNS

Row | Structure (SMILES) | TGI [1] | TGI [2] | TGI [3] | TGI [4] | TGI [5] | TGI [6] | TGI [7] | TGI [8] | TGI [9] | TGI [10] | TGI [11] | TGI [12] | TGI [13] | TGI [14] | TGI [15] | TGI [16] | TGI [17]
1 | COc1cccc(C2SCC(=O)N2c2ccc(-n3c(-c4ccccc4)nc4ccccc4c3=O)cc2)c1OC (centres undefined) | > 100 µM | > 100 µM | > 100 µM | > 100 µM | > 100 µM | > 100 µM | > 100 µM | > 100 µM | > 100 µM | > 100 µM | > 100 µM | > 100 µM | > 100 µM | > 100 µM | > 100 µM | > 100 µM | > 100 µM
2 | NC(=O)NC(=O)c1cccc(NC(=O)CF)c1 | > 100 µM | > 100 µM | > 100 µM | > 100 µM | > 100 µM | > 100 µM | > 100 µM | > 100 µM | > 100 µM | > 100 µM | > 100 µM | > 100 µM | > 100 µM | > 100 µM | > 100 µM | > 100 µM | > 100 µM
3 | Cn1c(=O)c2c(ncn2CCCCOc2ccc3c(c2)[n+]([O-])nc(N)[n+]3[O-])n(C)c1=O | 90 µM | 91.8 µM | > 100 µM | > 100 µM | 70.6 µM | > 100 µM | > 100 µM | > 100 µM | > 100 µM | > 100 µM | > 100 µM | > 100 µM | 52.6 µM | > 100 µM | > 100 µM | 79.6 µM | 70 µM
4 | COc1cccc2c1C(=O)c1ccc3cc(CCl)cc(O)c3c1C2=O | 1.67 µM | 1.67 µM | 1.7 µM | 1.42 µM | 1.39 µM | 1.15 µM | 1.86 µM | 1.13 µM | 1.57 µM | 0.46 µM | 0.334 µM | 1.04 µM | 1.46 µM | 0.293 µM | 1.98 µM | 1.78 µM | 0.701 µM
5 | COC(C)(C)CCc1[nH]c2ccccc2c1CC(=O)NCCc1cncn1C | > 100 µM | > 100 µM | > 100 µM | > 100 µM | > 100 µM | > 100 µM | > 100 µM | > 100 µM | > 100 µM | > 100 µM | > 100 µM | > 100 µM | > 100 µM | > 100 µM | > 100 µM | > 100 µM | > 100 µM
6 | CCOc1ccc(NCC2CC/C(=C\c3ccc(O)cc3)C2=O)cc1 (centres undefined) | 27.8 µM | 30.7 µM | 34.3 µM | 30.8 µM | 25.6 µM | 11.7 µM | > 55.2 µM | 5.13 µM | 39.5 µM | 35.8 µM | 35.6 µM | 29.2 µM | 34 µM | 27.1 µM | 49 µM | > 61.2 µM | 36.1 µM
7 | O=C1C(=C(I)I)c2ccccc2-c2ccccc21 | 12.8 µM | 17.6 µM | 7.12 µM | 20.4 µM | 15.5 µM | 2.61 µM | 27.5 µM | 10.2 µM | 9.45 µM | 5.58 µM | 4.31 µM | 7.94 µM | 7.54 µM | 8.13 µM | 2.48 µM | 36.4 µM | 3.61 µM
